The source of these data is article PMC10056899, “Neuroprotective and Antiherpetic Properties of Polyphenolic Compounds from Maackia amurensis Heartwood” (Molecules, 2023).

The test system of one data set is HSV-1. Kind of data set: Anti-HSV-1 activity, cytopathic effect (CPE) inhibition assay in Vero cells. It counts as cell-based, HSV-1 strain L2. The method, then: (§1) The HSV-1 strain L2 and Vero cell culture (kidney epithelial cells of the African green monkey Chlorocebus sp.) were obtained from the N.F. Gamaleya Federal Research Centre for Epidemiology and Microbiology (Moscow, Russia). HSV-1 was grown in Vero cells, using Dulbecco′s Modified Eagle′s Medium (DMEM, Biolot, St. Petersburg, Russia) supplemented with 10% fetal bovine serum (FBS, Biolot, St. Petersburg, Russia) and 100 U/mL of gentamycin (Dalkhimpharm, Khabarovsk, Russia), at 37 °C in a CO2 incubator. In the maintenance medium, the FBS concentration was decreased to 1%.
(§2) The tested compounds were dissolved in DMSO (Sigma, St. Louis, MO, USA) at a concentration 10 mg/mL and stored at −20 °C. For cytotoxicity and anti-HSV-1 activity determination, the stock solutions were diluted with DMEM so that the final concentration of DMSO was 0.5%.
The anti-HSV-1 activity of stilbenes was evaluated using cytopathic effect (CPE) inhibition assay in Vero cells. We infected the monolayer of cells grown in 96-well plates (1 × 10^4 cells/well) with 100 µL/well of virus suspension (100 TCD50/mL) and we simultaneously treated it with stilbenes 1–6 (100 µL/well) at various concentrations (from 1 to 400 μg/mL) for one hour at 37 ◦C. After virus absorption, we removed the mixture of virus and stilbenes, washed the cells, and added the maintenance medium with 1% FBS. […] We used MTT assay to evaluate the antiviral activity of stilbenes. The viral inhibition rate (IR, %) was calculated according to Equation (3):(3) IR, %=Atv−Acv/Acd−Acv×100, where: • Atv is the absorbance of cells infected with virus and treated with a polyphenolic compound; • Acv is the absorbance of the untreated virus-infected cells; • Acd is the absorbance of control (untreated and non-infected) cells.
The selectivity index (SI) was calculated as the ratio of CC50 to IC50. Experiments were repeated three times.

Data set [1] has as its system PQ-treated Neuro-2a cells. In words: Mitochondrial membrane potential in PQ-treated cells (TMRM). It counts as cell-based, murine. Conditions: 0.1 μM. As for the experimental part:
[…] Then, we added PQ (500 μM) and kept the cell suspension in a CO2-incubator for 1 h. Cells incubated without PQ and stilbenes and with PQ only were used as positive and negative control, respectively. We added the tetramethylrhodamine methyl (TMRM) (Sigma-Aldrich, St. Louis, MO, USA) solution (500 nM) to each well and kept the cells for 30 min in a CO2-incubator at 37 °C. The intensity of fluorescence was measured with a PHERAstar […] reader (BMG Labtech, Ortenberg, Germany) at λex = 540 nm and λem = 590 nm. We processed the data by MARS Data Analysis v. 3.01R2 (BMG Labtech, Ortenberg, Germany) and presented the results as percentages of the positive control value.

Data set [2] can be described thus: Cytotoxicity against Vero cells (MTT assay). It is filed as cell-based. Conditions: African green monkey (Chlorocebus sp.). As for the experimental part: as §1, §2
The cytotoxicity evaluation of the studied compounds was performed using the MTT assay, as described previously. In brief, confluent Vero cells in 96-well microplates (1 × 10^4 cells/well) were incubated with tested compounds at various concentrations (1–500 μg/mL) at 37 °C for 48 h (5% CO2). Untreated cells were used as controls. Then, MTT solution (methylthiazolyltetrazolium bromide, Sigma, St. Louis, MO, USA) was added to cells at a concentration of 5 mg/mL and the cells were incubated at 37 °C for 2 h. After dissolution of formazan crystals, optical densities were read at 540 nm (Labsystems Multiskan RC, Vantaa, Finland). […] [42]. Experiments were performed in triplicate and repeated three times.
On the technique in general: Formazan colour is commonly taken as a measure of viable cells.

In data set [3] the test system is PQ-treated Neuro-2a cells. In words: Intracellular ROS level in PQ-treated cells (H2DCF-DA). It counts as cell-based, murine. Conditions: Mus musculus, N2a, 0.1 μM (minimum studied concentration), PQ 1 mM. As for the experimental part:
After 24 h of adhesion, Neuro-2a cells (1 × 10^4 cells/well) were incubated with stilbenes (0.01–10 µM) for 1 h. After that, we added PQ (1 mM) to each well and incubated the cells for 3 h. To study ROS formation, we added 20 µL of 2,7-dichlorodihydrofluorescein diacetate solution ([…], H2DCF-DA, Molecular Probes, Eugene, OR, USA) to each well, so that the concentration was 10 µM, and kept the microplate in a CO2–incubator for additional 30 min at 37 °C.

Data set [4] in a line: Cytotoxic activity against Neuro-2a cells (MTT assay). It counts as cell-based, murine. Conditions: mouse, Neuro-2a neuroblastoma cells, data not shown, read-out: EC50 of cell viability reduction (cytotoxic activity). As for the experimental part:
We purchased the murine neuroblastoma cell line Neuro-2a (CCL-131) from the American Type Culture Collection (ATCC®) (Manassas, VA, USA). We cultured Neuro-2a cells in Dulbecco′s Modified Eagle Medium (Biolot, St. Petersburg, Russia), which contained 10% fetal bovine serum (Biolot, St. Petersburg, Russia) and 1% penicillin/streptomycin (Biolot, St. Petersburg, Russia). We incubated the cells at 37 °C in a humidified atmosphere containing 5% (v/v) CO2.
We prepared the stock solutions of stilbenes in DMSO at a concentration of 10 mM. Compounds 1–6 were added to the wells of the plates in a volume of 20 μL diluted in PBS at the following final concentrations: 0.1, 1.0, and 10.0 µM (final concentration of DMSO <1%).
Neuro-2a cells (1 × 10^4 cells/well) were kept in a CO2 incubator at 37 °C for 24 h until they formed an adherent monolayer. Then, 20 μL of stilbenes solution was added to the cells. After incubation for 24 h, the medium containing the stilbenes was replaced by 100 μL of fresh DMEM medium. Then, we added 10 μL of MTT (3-(4,5-dimethylthiazol-2-yl)-2,5-diphenyltetrazolium bromide) (Sigma-Aldrich, St. Louis, MO, USA) stock solution (5 mg/mL) to each well and incubated the microplate for 4 h. […] After incubation for 18 h, we measured the absorbance of the converted dye formazan on a Multiskan FC microplate photometer (Thermo Scientific, Waltham, MA, USA) at a wavelength of 570 nm. […]

Data set [5] can be described thus: DPPH radical scavenging assay. Conditions: 20 min. As for the experimental part:
The DPPH (2,2-diphenyl-1-picrylhydrazyl) scavenging effect of polyphenolic compounds 1-6 from M. amurensis heartwood was evaluated as described previously in [40]. Stilbenes were added to DPPH solution in MeOH (10^−4 M) at a concentration range from 1 to 34 µM. The mixture was kept in the dark at room temperature for 20 min. Then, we measured the absorbance at 517 nm using a Shimadzu UV 1240 spectrophotometer (Shimadzu, Kyoto, Japan). The DPPH radical-scavenging effect (%) of the stilbenes was calculated using Equation (1): (1) DPPH scavenging effect, %=A0−Ax/A0×100, where: • A0 is the absorbance of DPPH solution without polyphenolic compounds (blank sample); • Ax is the absorbance of DPPH solution in the presence of different concentrations of polyphenolic compounds.
Quercetin and ascorbic acid were used as reference compounds. All experiments were performed in triplicate. The half maximal inhibitory concentration (IC50) for polyphenolic compounds was calculated by plotting the DPPH scavenging effect (%) against the concentrations of polyphenolic compounds. IC50 values are given as the mean ± SEM.
For orientation: Loss of DPPH colour is used to gauge radical scavenging.

Data set [6] in a line: Ferric reducing antioxidant power (FRAP) assay. Conditions: 4 min, pH 3.6. The method, then:
The FRAP assay was carried out as described in [41]. We prepared FRAP reagent by mixing 2.5 mL of TPTZ (2,4,6-tris(2-pyridyl)-s-triazine) solution (10 mM) in 40 mM HCl and […] of FeCl3 solution (20 mM) in acetate buffer solution (300 mM, pH 3.6). Then, we added stilbenes 1–6 to 3 mL of FRAP reagent at concentrations from 1 to 34 µM. The mixture was kept in the dark at room temperature for 4 min. Then, we measured the absorbance at 595 nm using a Shimadzu UV 1240 spectrophotometer. Equation (2) was used to calculate the FRAP values of stilbenes 1–6:(2) FRAP=CFe/Cx, where: • CFe is the concentration of Fe^2+ (µM) formed in the reaction; • Cx is the concentration of polyphenolic compounds in the reacting mixture.
The concentration of Fe^2+ (µM) formed in the reaction was determined using the calibration curve obtained for different concentrations of FeSO4·7H2O.

Where “and” joins values, the source holds several entries; their conditions need not be identical. Identical values can stand only once.

As usually defined, the IC50 is the concentration at which inhibition is half-maximal. What is called CC50 is the concentration that lowers cell viability or growth by half. As a reminder, the inhibition is the share of the control response that was lost under treatment. For orientation: EC50 means the concentration giving half of the maximal effect. With `Oc1cc(O)cc(/C=C/c2ccc3c(c2)O[C@H](c2cc(O)cc(O)c2)[C@@H](c2ccc(O)c(O)c2)O3)c1` [Compound 3, maackin], in the data set with HSV-1 (Human alphaherpesvirus 1, Vero, read-out: IC50 (CPE assay)), the IC50 was 17.6 µg/mL and 36.2 µM. Besides, the “SI = CC50/IC50” value in the data set on HSV-1 (Vero cells, HSV-1) worked out at 15.3 ± 1.9. Moreover, in data set [1], the “Increase of mitochondrial membrane potential compared to PQ-treated cells” value was 16%. In addition, in data set [2], the half-maximal cytotoxic concentration (CC50) at 48 h is 270 µg/mL and 555 µM. The same compound registered an inhibition at 0.1 µM in data set [3] of 17%. In addition, the concentration giving a half-maximal response (EC50) at 24 h in data set [4] stood at 87.7 µM. The “DPPH Scavenging Effect IC50” value in data set [5] came to 1.31 ± 0.15 µg. Further, the 50% inhibitory concentration (IC50) in data set [5] (read-out: DPPH Scavenging Effect IC50) turned out to be 2.7 ± 0.3 µM. Besides, in data set [6], the “FRAP CFe2+(µM)/Cpolyphenolic compound (µM)” value was 10.11 ± 0.93 CFe2+(µM)/Cpolyphenolic compound (µM) and the “FRAP CFe2+(µM)/Cpolyphenolic compound (μkg/mL)” value was 20.80 ± 1.91 CFe2+(µM)/Cpolyphenolic compound (μkg/mL).
